Assay results published in ChEMBL document CHEMBL3112539, “Synthesis of neoglycosphingolipid from methoxyamino-functionalized ceramide” (Bioorg Med Chem Lett, 2014).
Active and inactive are the calls of the source. The rule behind the calls is not given here.

What was measured:
[1] = molecular target: T1, Endoglycoceramidase II (Rhodococcus sp) (UniProt A0ACD6B832); test: (§1) Inhibition of Rhodococcus sp. recombinant endoglycoceramidase 2 hydrolytic activity assessed as lactose released from (2S,3S,4R)-2-[N-(octadecanoyl)amino]-1-{O-[beta-galactosylpyranosyl-(1->4)-beta-glucopyranosyl]}octadecane-1,3,4-triol at 0.27 mM after 15 mins by modified Park and Johnson method
[2] = molecular target: T1, Endoglycoceramidase II (Rhodococcus sp); test: as §1, with “Competitive inhibition” for “Inhibition”
[3] = molecular target: T1, Endoglycoceramidase II (Rhodococcus sp); test: Inhibition of Rhodococcus sp. recombinant endoglycoceramidase 2 hydrolytic activity assessed as lactose released from O-LacCer at 0.74 mM after 15 mins by modified Park and Johnson method

T1 sequence (A0ACD6B832 as listed by the source): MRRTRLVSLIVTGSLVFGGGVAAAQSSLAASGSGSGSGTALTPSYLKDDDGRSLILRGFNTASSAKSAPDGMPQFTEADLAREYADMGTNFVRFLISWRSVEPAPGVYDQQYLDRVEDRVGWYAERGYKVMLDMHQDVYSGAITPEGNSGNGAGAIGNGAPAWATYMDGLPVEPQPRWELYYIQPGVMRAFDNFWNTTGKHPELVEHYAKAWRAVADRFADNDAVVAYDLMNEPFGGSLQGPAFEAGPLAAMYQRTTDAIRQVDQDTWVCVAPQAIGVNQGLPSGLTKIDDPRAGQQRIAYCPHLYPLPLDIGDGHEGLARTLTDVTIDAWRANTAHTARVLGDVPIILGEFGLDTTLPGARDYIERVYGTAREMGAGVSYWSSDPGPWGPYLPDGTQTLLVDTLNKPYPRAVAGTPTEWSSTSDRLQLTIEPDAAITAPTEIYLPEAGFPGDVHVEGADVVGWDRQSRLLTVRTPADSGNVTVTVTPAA

inhibition [1]: Active
inhibition [2]: Active
inhibition [3]: inactive
SMILES: CCCCCCCCCCCCCCCCCC(=O)N[C@@H](CN(OC)[C@@H]1O[C@H](CO)[C@@H](O[C@@H]2O[C@H](CO)[C@H](O)[C@H](O)[C@H]2O)[C@H](O)[C@H]1O)[C@H](O)[C@H](O)CCCCCCCCCCCCCC
